Test results: patent publication US7371751B2, “Thiazole derivatives” (Hoffmann-La Roche Inc., priority 2003, dated 2008)

Molecular target: T1, human cannabis CB1 receptor (Homo sapiens, UniProt P21554)
T1 construct: expressed in transfected cells; host or cells: human embryonic kidney (HEK) cells, Semliki Forest Virus system, membrane preparation
Test: Affinity for cannabinoid CB1 receptors, [3H]-CP-55,940 radioligand binding on HEK cell membrane preparations
Conditions: not given
Method: The affinity of the compounds of the invention for cannabinoid CB1 receptors was determined using membrane preparations of human embryonic kidney (HEK) cells in which the human cannabis CB1 receptor is transiently transfected using the Semliki Forest Virus system in conjunction with [3H]-CP-55,940 as radioligand. After incubation of a freshly prepared cell membrane preparation with the [3H]-ligand, with or without addition of compounds of the invention, separation of bound and free ligand was performed by filtration over glassfiber filters. Radioactivity on the filter was measured by liquid scintillation counting.

T1 sequence (P21554 whole entry): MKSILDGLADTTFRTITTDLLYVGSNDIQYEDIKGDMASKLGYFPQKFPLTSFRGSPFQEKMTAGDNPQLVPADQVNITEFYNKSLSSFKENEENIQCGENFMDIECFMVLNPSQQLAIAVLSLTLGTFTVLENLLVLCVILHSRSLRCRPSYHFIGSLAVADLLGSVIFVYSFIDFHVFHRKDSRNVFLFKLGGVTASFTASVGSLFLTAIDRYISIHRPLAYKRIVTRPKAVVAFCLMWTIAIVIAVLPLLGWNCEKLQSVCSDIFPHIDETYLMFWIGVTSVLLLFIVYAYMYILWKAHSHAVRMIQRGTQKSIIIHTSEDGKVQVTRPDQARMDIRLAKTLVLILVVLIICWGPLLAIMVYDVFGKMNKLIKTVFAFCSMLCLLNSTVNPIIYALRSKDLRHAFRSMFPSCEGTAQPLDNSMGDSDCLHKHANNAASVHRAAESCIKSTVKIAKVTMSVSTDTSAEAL

Q: For O=C(c1csc(N(C(=O)c2ccc(Cl)cc2Cl)c2ccc(Cl)cc2)n1)N1CCCC1 [Example 6, 2,4-Dichloro-N-(4-chloro-phenyl)-N-[4-(pyrrolidine-1-carbonyl)-thiazol-2-yl]-benzamide], which IC50 is on record?
A: Its IC50 is 610 nM.

Q: For COc1ccc(N(C(=O)c2ccc(Cl)cc2Cl)c2nc(C(=O)NCc3ccccc3)cs2)cc1OC [Example 11, 2-[(2,4-Dichloro-benzoyl)-(3,4-dimethoxy-phenyl)-amino]-thiazole-4-carboxylic acidbenzylamide], which IC50 is on record?
A: Its IC50 is 810 nM.

Q: Which IC50 does the source give for COCCN(CCOC)C(=O)c1csc(N(C(=O)c2ccc(Cl)cc2Cl)c2ccc(Cl)cc2)n1 [Example 33, 2-[(4-Chloro-phenyl)-(2,4-dichloro-benzoyl)-amino]-thiazole-4-carboxylic acid bis-(2-methoxy-ethyl)-amide] here?
A: The IC50 was 550 nM.

Q: Which IC50 does the source give for CC(C)(C)N(CCO)C(=O)c1csc(N(C(=O)c2ccc(Cl)cc2Cl)c2ccc(Cl)cc2)n1 [Example 95, 2-[(4-Chloro-phenyl)-(2,4-dichloro-benzoyl)-amino]-thiazole-4-carboxylic acid tert-butyl-(2-hydroxy-ethyl)-amide] here?
A: The IC50 was 260 nM.

Q: For O=C(c1csc(N(C(=O)c2ccc(Cl)cc2Cl)c2ccc(OC(F)(F)F)cc2)n1)N1CCCC1 [Example 147, 2,4-Dichloro-N-[4-(pyrrolidine-1-carbonyl)thiazole-2-yl]-N-(4-trifluoromethoxy-phenyl)-benzamide], which IC50 is on record?
A: The IC50 was 490 nM.

Same assay, conditions: affinity for the CB1 receptor; [3H]-CP-55,940 as radioligand; HEK cell membranes; read-out: IC50

Q: Which IC50 does the source give for CCOC(=O)c1csc(N(C(=O)c2ccc(Cl)cc2Cl)c2ccc(OC)c(OC)c2)n1 [Example 2, 2-[(2,4-Dichloro-benzoyl)-(3,4-dimethoxy-phenyl)-amino]-thiazole-4-carboxylic acid ethyl ester] here?
A: Its IC50 is 510 nM.

Q: For COc1ccc(N(C(=O)c2ccccc2Cl)c2nc(C(=O)NC3CCCCC3)cs2)cc1OC [Example 18, 2-[(2-Chloro-benzoyl)-(3,4-dimethoxy-phenyl)-amino]-thiazole-4-carboxylic acidcyclohexylamide], which IC50 is on record?
A: Its IC50 is 850 nM.

Q: Which IC50 does the source give for CCCCCN(C)C(=O)c1csc(N(C(=O)c2ccc(Cl)cc2Cl)c2ccc(Cl)cc2)n1 [Example 27, 2-[(4-Chloro-phenyl)-(2,4-dichloro-benzoyl)-amino]-thiazole-4-carboxylic acid methyl-pentyl-amide] here?
A: Its IC50 is 520 nM.

Q: For O=C(NCCc1cnc[nH]1)c1csc(N(C(=O)c2ccc(Cl)cc2Cl)c2ccc(Cl)cc2)n1 [Example 43], which IC50 is on record?
A: Its IC50 is 810 nM.

Q: Which IC50 does the source give for O=C(c1cnc(N(C(=O)c2ccc(Cl)cc2Cl)c2ccc(Cl)cc2)s1)N1CCSCC1 [Example 138, 2,4-Dichloro-N-(4-chlor-o-phenyl)-N-[5-(thio-morpholine-4-car-bonyl)-thiazol-2-yl]-benz-amide] here?
A: The IC50 was 430 nM.

Test system: not given
Test: not given
Conditions: 5, 10 and 20 mg daily; compared to placebo; cited from earlier work

Q: Which body weight does the source give for Cc1c(C(=O)NN2CCCCC2)nn(-c2ccc(Cl)cc2Cl)c1-c1ccc(Cl)cc1 [SR 141716] here?
A: The body weight was “significantly reduced body weight”.
